Source: patent publication US6713665B2, “Maize NPR1 promoter and methods of use in plant gene expression” (Pioneer Hi-Bred International, Inc., priority 1999, dated 2004)

Test system: PR1#81::GUS
Experiment: Effects of defense elicitors on PR1#81::GUS expression in bombarded GS3 immature embryos
Assay type: cell-based, maize
Conditions: 1 mM salicylic acid or 0.1 mM jasmonic acid, 20-24 h; for PR1#81::GUS expression in the absence of exogenous NPR1: PR1#81::GUS alone; for PR1#81::GUS expression in the presence of exogenous NPR1: co-bombarded with Ubi::NPR1
Description: To evaluate the effects of defense elicitors on PR1#81::GUS expression with or without overexpression of NPR1, three experiments with a total of five replications were performed. GS3 immature embryos were bombarded with either PRI#81::GUS alone or in combination with Ubi::NPR1. Twenty-four hours after bombardment the embryos were treated with either 50 µg/ml of chitosan, 1 mM salicylic acid, or 0.1 mM jasmonic acid diluted in liquid osmotic medium. The embryos were then cultured at 28° C. for twenty to twenty-four hours before the histochemical GUS staining at 37° C. Visual observation of blue spots by histochemical GUS staining was used for interpretation of the transient assay results.

| SMILES | PR1#81::GUS expression in the absence of exogenous NPR1 | PR1#81::GUS expression in the presence of exogenous NPR1 |
| --- | --- | --- |
| CC/C=C\C[C@H]1C(=O)CC[C@@H]1CC(=O)O [jasmonic acid] | suppressed | suppressed |
| O=C(O)c1ccccc1O [salicylic acid] | up regulated | up regulates |
